PubChem BioAssay AID1918991 (Molecular Pharmacology Branch, DTP, NCI, 2023)

Test system: 186277-243-T-J2-PDC complex spheroid growth
Assay: Anticancer human tumor 186277-243-T-J2-PDC patient-derived colon adenocarcinoma cell line growth inhibition [AhR]
Conditions: for IC50: curve of first compound; for viability, T/C: stronger effect = lower value; active = viability on the fitted dose curve at most 10% of control; inactive = the rest
How it was run: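 Spheroids combined tumor cells with HUVEC endothelial cells and human MSCs as stroma. AhR antagonists were paired with standard or investigational drugs, each dosed in half-log steps down from near clinical Cmax, or from 10 microM where Cmax was unknown.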

[1] = second compound 0.1 µM, first compound 0.0316 µM
[2] = second compound 0.1 µM, first compound 0.1 µM
[3] = second compound 0.1 µM, first compound 0.316 µM
[4] = second compound 0.1 µM, first compound 1 µM
[5] = second compound 0.1 µM, first compound 3.16 µM
[6] = second compound 0.1 µM, first compound 10 µM
[7] = second compound 0.316 µM, first compound 0.0316 µM
[8] = second compound 0.316 µM, first compound 0.1 µM
[9] = second compound 0.316 µM, first compound 0.316 µM
[10] = second compound 0.316 µM, first compound 1 µM
[11] = second compound 0.316 µM, first compound 3.16 µM
[12] = second compound 0.316 µM, first compound 10 µM
[13] = second compound 1 µM, first compound 0.0316 µM
[14] = second compound 1 µM, first compound 0.1 µM
[15] = second compound 1 µM, first compound 0.316 µM
[16] = second compound 1 µM, first compound 1 µM
[17] = second compound 1 µM, first compound 3.16 µM
[18] = second compound 1 µM, first compound 10 µM
[19] = second compound 3.16 µM, first compound 0.0316 µM
[20] = second compound 3.16 µM, first compound 0.1 µM
[21] = second compound 3.16 µM, first compound 0.316 µM
[22] = second compound 3.16 µM, first compound 1 µM
[23] = second compound 3.16 µM, first compound 3.16 µM
[24] = second compound 3.16 µM, first compound 10 µM
[25] = second compound 10 µM, first compound 0.0316 µM
[26] = second compound 10 µM, first compound 0.1 µM
[27] = second compound 10 µM, first compound 0.316 µM
[28] = second compound 10 µM, first compound 1 µM
[29] = second compound 10 µM, first compound 3.16 µM
[30] = second compound 10 µM, first compound 10 µM
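Also: spheroids exposed to compounds for seven days before the viability read.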
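For viability, T/C in this document: luminescent signal used as a stand-in for viable cell amount; 100% = DMSO vehicle control wells.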

Nc1ccccc1NC(=O)c1ccc(CNC(=O)OCc2cccnc2)cc1 + Cc1cncc(-c2nc(NCCc3c[nH]c4ccccc34)c3ncn(C(C)C)c3n2)c1
3300 nM: IC50 (second compound 3.16 µM)
inactive: viability, T/C [1] 91.1% | viability, T/C [2] 94.1% | viability, T/C [3] 100% | viability, T/C [4] 96% | viability, T/C [5] 49.7% | viability, T/C [7] 101% | viability, T/C [8] 105% | viability, T/C [9] 101% | viability, T/C [10] 93.5% | viability, T/C [11] 48.8% | viability, T/C [13] 82% | viability, T/C [14] 114% | viability, T/C [15] 92.2% | viability, T/C [16] 111% | viability, T/C [17] 57.1% | viability, T/C [19] 94.1% | viability, T/C [20] 97.7% | viability, T/C [21] 93.1% | viability, T/C [22] 86.1% | viability, T/C [23] 51.6% | viability, T/C [25] 42.4% | viability, T/C [26] 36.9% | viability, T/C [27] 23.9% | viability, T/C [28] 10.1%
3740 nM: IC50 (second compound 1 µM)
< 31.6 nM: IC50 (second compound 10 µM)
3060 nM: IC50 (second compound 0.316 µM)
3140 nM: IC50 (second compound 0.1 µM)
active: viability, T/C [6] 8.44% | viability, T/C [12] 7.07% | viability, T/C [18] 8.57% | viability, T/C [24] 8.37% | viability, T/C [29] 2.97% | viability, T/C [30] 0.95%

O=C(C=Cc1cccc(S(=O)(=O)Nc2ccccc2)c1)NO + Cc1cncc(-c2nc(NCCc3c[nH]c4ccccc34)c3ncn(C(C)C)c3n2)c1
active: viability, T/C [5] 8.19% | viability, T/C [6] 2.59% | viability, T/C [11] 7.8% | viability, T/C [12] 2.18% | viability, T/C [17] 9.76% | viability, T/C [18] 2.85% | viability, T/C [23] 10.6% | viability, T/C [24] 3.82% | viability, T/C [28] 10.7% | viability, T/C [29] 6.37% | viability, T/C [30] 3.77%
756 nM: IC50 (second compound 3.16 µM)
inactive: viability, T/C [1] 98.9% | viability, T/C [2] 89.6% | viability, T/C [3] 94% | viability, T/C [4] 47.9% | viability, T/C [7] 92.1% | viability, T/C [8] 89.1% | viability, T/C [9] 94.8% | viability, T/C [10] 42% | viability, T/C [13] 105% | viability, T/C [14] 95.7% | viability, T/C [15] 86.8% | viability, T/C [16] 42.2% | viability, T/C [19] 106% | viability, T/C [20] 103% | viability, T/C [21] 111% | viability, T/C [22] 31.8% | viability, T/C [25] 76.9% | viability, T/C [26] 67.9% | viability, T/C [27] 28.2%
818 nM: IC50 (second compound 1 µM)
832 nM: IC50 (second compound 0.316 µM)
955 nM: IC50 (second compound 0.1 µM)
168 nM: IC50 (second compound 10 µM)

O=C(c1cc(Cc2n[nH]c(=O)c3ccccc23)ccc1F)N1CCN(C(=O)C2CC2)CC1 + Cc1cncc(-c2nc(NCCc3c[nH]c4ccccc34)c3ncn(C(C)C)c3n2)c1
< 31.6 nM: IC50 (second compound 10 µM)
inactive: viability, T/C [1] 107% | viability, T/C [2] 110% | viability, T/C [3] 88.1% | viability, T/C [4] 110% | viability, T/C [5] 123% | viability, T/C [6] 123% | viability, T/C [7] 108% | viability, T/C [8] 103% | viability, T/C [9] 96.5% | viability, T/C [10] 110% | viability, T/C [11] 125% | viability, T/C [12] 130% | viability, T/C [13] 97.6% | viability, T/C [14] 96.5% | viability, T/C [15] 100% | viability, T/C [16] 115% | viability, T/C [17] 125% | viability, T/C [18] 134% | viability, T/C [19] 115% | viability, T/C [20] 110% | viability, T/C [21] 115% | viability, T/C [22] 116% | viability, T/C [23] 146% | viability, T/C [24] 130% | viability, T/C [25] 48.2% | viability, T/C [26] 44.3% | viability, T/C [27] 38.8% | viability, T/C [28] 41.5% | viability, T/C [29] 28.5% | viability, T/C [30] 21.5%
> 10000 nM: IC50 (second compound 0.1 µM) | IC50 (second compound 0.316 µM) | IC50 (second compound 1 µM) | IC50 (second compound 3.16 µM)
